Reference: the supplement of paper PMC10307832

Key:
Test in all cases: relative viability (nuclei count vs DMSO), 5 days (fraction); higher = more cells survive
TPCA-1 + Palbociclib = compound: C1=CC(=CC=C1C2=CC(=C(S2)NC(=O)N)C(=O)N)F [TPCA-1] + CC(=O)c1c(C)c2cnc(Nc3ccc(N4CCNCC4)cn3)nc2n(C2CCCC2)c1=O [Palbociclib] (partner 0.5 µM)
How it was run: (§1)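 Each reported value is a median over duplicate plates. It expresses relative viability: treated-well nuclei count divided by vehicle-well nuclei count. Lung cancer cell lines in 1536-well plates were dosed by pin tool a day after seeding, alone with one drug or with a fixed anchor-drug dose plus five library-drug doses (not always all listed) in √10 steps, and nuclei were counted after 5 days.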

TPCA-1 + Linsitinib = compound: C1=CC(=CC=C1C2=CC(=C(S2)NC(=O)N)C(=O)N)F [TPCA-1] + C[C@]1(O)C[C@@H](c2nc(-c3ccc4ccc(-c5ccccc5)nc4c3)c3c(N)nccn32)C1 [Linsitinib] (partner 1 µM)
How it was run: as §1

TPCA-1 + Vorinostat = compound: C1=CC(=CC=C1C2=CC(=C(S2)NC(=O)N)C(=O)N)F [TPCA-1] + O=C(CCCCCCC(=O)Nc1ccccc1)NO [Vorinostat] (partner 1 µM)
How it was run: as §1

[1] = compound: C[C@]12O[C@H](C[C@]1(O)CO)n1c3ccccc3c3c4c(c5c6ccccc6n2c5c31)CNC4=O [Lestaurtinib] + C[C@]1(O)C[C@@H](c2nc(-c3ccc4ccc(-c5ccccc5)nc4c3)c3c(N)nccn32)C1 [Linsitinib] (partner 1 µM)
How it was run: as §1

Cell Line | relative viability (TPCA-1 + Palbociclib; first compound 0.04 µM) | relative viability (TPCA-1 + Palbociclib; first compound 0.1265 µM) | relative viability (TPCA-1 + Palbociclib; first compound 0.4 µM) | relative viability (TPCA-1 + Palbociclib; first compound 1.265 µM) | relative viability (TPCA-1 + Palbociclib; first compound 4 µM) | relative viability (TPCA-1 + Linsitinib; first compound 0.04 µM) | relative viability (TPCA-1 + Linsitinib; first compound 0.1265 µM) | relative viability (TPCA-1 + Linsitinib; first compound 0.4 µM) | relative viability (TPCA-1 + Linsitinib; first compound 1.265 µM) | relative viability (TPCA-1 + Linsitinib; first compound 4 µM) | relative viability (TPCA-1 + Vorinostat; first compound 0.04 µM) | relative viability (TPCA-1 + Vorinostat; first compound 0.1265 µM) | relative viability (TPCA-1 + Vorinostat; first compound 0.4 µM) | relative viability (TPCA-1 + Vorinostat; first compound 1.265 µM) | relative viability (TPCA-1 + Vorinostat; first compound 4 µM) | relative viability ([1]; first compound 0.005 µM) | relative viability ([1]; first compound 0.01581 µM) | relative viability ([1]; first compound 0.05 µM) | relative viability ([1]; first compound 0.1581 µM) | relative viability ([1]; first compound 0.5 µM)
BEN | 0.474 | 0.468 | 0.531 | 0.577 | 0.422 | 0.973 | 0.728 | 1 | 0.877 | 0.692 | 0.56 | 0.543 | 0.624 | 0.634 | 0.441 | 0.949 | 1.09 | 0.747 | 0.778 | 0.321
SK-LU-1 | 0.363 | 0.367 | 0.368 | 0.347 | 0.235 | 1.19 | 1.07 | 1.11 | 0.681 | 0.425 | 0.872 | 0.672 | 0.774 | 0.577 | 0.449 | 0.883 | 0.686 | 0.537 | 0.505 | 0.261
NCI-H1975 | 0.593 | 0.532 | 0.613 | 0.552 | 0.142 | 0.93 | 0.916 | 0.971 | 0.918 | 0.946 | 0.724 | 0.699 | 0.712 | 0.632 | 0.444 | 1.09 | 0.967 | 0.717 | 0.537 | 0.302
RERF-LC-KJ | 1.12 | 1.04 | 1.04 | 1.03 | 0.892 | 1.02 | 0.82 | 0.857 | 0.896 | 0.905 | 0.76 | 0.688 | 0.664 | 0.671 | 0.46 | 0.964 | 0.946 | 0.535 | 0.619 | 0.516
NCI-H441 | 0.186 | 0.183 | 0.188 | 0.239 | 0.162 | 0.669 | 0.287 | 0.569 | 0.328 | 0.188 | 0.776 | 0.636 | 0.717 | 0.577 | 0.476 | 0.446 | 0.547 | 0.182 | 0.339 | 0.27
LCLC-103H | 0.52 | 0.519 | 0.465 | 0.473 | 0.494 | 1.24 | 0.99 | 1.08 | 1.12 | 1.07 | 0.839 | 0.764 | 0.818 | 0.525 | 0.363 | 1.07 | 1.12 | 0.697 | 0.705 | 0.6
HCC-78 | 0.464 | 0.455 | 0.492 | 0.48 | 0.387 | 0.555 | 0.429 | 0.506 | 0.413 | 0.399 | 0.445 | 0.422 | 0.42 | 0.469 | 0.28 | 0.53 | 0.419 | 0.413 | 0.225 | 0.234
NCI-H1915 | 0.568 | 0.475 | 0.515 | 0.516 | 0.465 | 1.16 | 1.12 | 1.15 | 1.04 | 1.03 | 0.541 | 0.5 | 0.537 | 0.392 | 0.386 | 1.21 | 1.09 | 1.11 | 0.797 | 0.565
